Experimental data taken from ChEMBL document CHEMBL2202996, “Synthesis, evaluation, and radiolabeling of new potent positive allosteric modulators of the metabotropic glutamate receptor 2 as potential tracers for positron emission tomography imaging” (J Med Chem, 2012).

Columns and labels:
[1] = tested on: Brain; assay: Ratio of SUV in total brain in iv dosed Wistar at 2 mins post administration by gamma counting to SUV in total brain in iv dosed Wistar at 30 mins post administration by gamma counting; format: ADME, organism-based; settings: rat, in vivo
[2] = tested on: Hippocampus; assay: Ratio of SUV in hippocampus in iv dosed Wistar at 2 mins post administration by gamma counting to SUV in hippocampus in iv dosed Wistar at 30 mins post administration by gamma counting; format: ADME, organism-based; settings: rat, in vivo
[3] = tested on: Rattus norvegicus; assay: Biodistribution in Wistar rat urinary system at 22 Mbq, iv measured at 60 mins post administration by gamma counting; format: ADME, organism-based, Urine; settings: in vivo, 1 h
[4] = tested on: Cerebrum; assay: Biodistribution in Wistar rat cerebrum at 22 Mbq, iv measured at 2 mins post administration by gamma counting; format: ADME, organism-based; settings: in vivo
[5] = tested on: Striatum; assay: Ratio of SUV in striatum in iv dosed Wistar at 2 mins post administration by gamma counting to SUV in striatum in iv dosed Wistar at 30 mins post administration by gamma counting; format: ADME, organism-based; settings: rat, in vivo
[6] = tested on: Liver; assay: Biodistribution in Wistar rat liver at 22 Mbq, iv measured at 60 mins post administration by gamma counting; format: ADME, organism-based; settings: in vivo, 1 h
[7] = tested on: Cortex; assay: Ratio of SUV in cortex in iv dosed Wistar at 2 mins post administration by gamma counting to SUV in cortex in iv dosed Wistar at 30 mins post administration by gamma counting; format: ADME, organism-based; settings: rat, in vivo
[8] = Metabolic stability in Wistar rat cerebellum assessed as intact tracer at 74 MBq, iv measured at 30 mins post administration by gamma counting; format: ADME, organism-based; settings: read-out: Stability
[9] = Metabolic stability in Wistar rat plasma assessed as intact tracer at 74 MBq, iv measured at 30 mins post administration by gamma counting; format: ADME, organism-based; settings: read-out: Stability
[10] = tested on: Brain; assay: Biodistribution in Wistar rat brain at 22 Mbq, iv measured at 2 mins post administration by gamma counting; format: ADME, organism-based; settings: in vivo
[11] = tested on: Cerebellum; assay: Ratio of SUV in cerebellum in iv dosed Wistar at 2 mins post administration by gamma counting to SUV in cerebellum in iv dosed Wistar at 30 mins post administration by gamma counting; format: ADME, organism-based; settings: rat, in vivo
[12] = tested on: Intestine; assay: Biodistribution in Wistar rat intestine at 22 Mbq, iv measured at 60 mins post administration by gamma counting; format: ADME, organism-based; settings: in vivo, 1 h
[13] = tested on: Cerebrum; assay: Ratio of SUV in cerebrum in iv dosed Wistar at 2 mins post administration by gamma counting to SUV in cerebrum in iv dosed Wistar at 30 mins post administration by gamma counting; format: ADME, organism-based; settings: rat, in vivo
[14] = tested on: Cerebellum; assay: Biodistribution in Wistar rat cerebellum at 22 Mbq, iv measured at 2 mins post administration by gamma counting; format: ADME, organism-based; settings: in vivo
[15] = Metabolic stability in Wistar rat cerebrum assessed as intact tracer at 74 MBq, iv measured at 30 mins post administration by gamma counting; format: ADME, organism-based; settings: read-out: Stability
[16] = tested on: HEK293; assay: Selectivity ratio for human mGluR3 expressed in HEK293 cells to human mGluR2 expressed in CHO cell membranes; format: cell-based
[17] = tested on: HEK293; assay: Selectivity ratio for human mGluR5 expressed in HEK293 cells to human mGluR2 expressed in CHO cell membranes; format: cell-based
[18] = tested on: Liver microsomes; assay: Drug metabolism in rat liver microsomes assessed as M+O oxidative metabolite; format: ADME, Microsome
[19] = biological target: T1, Metabotropic glutamate receptor 2 (Homo sapiens, UniProt Q14416); assay: Displacement of [3H]JNJ-40068782 from human mGLuR2 expressed in CHO cell membrane after 60 mins by liquid scintillation counting; format: cell membranes
Target sequence in this assay (Q14416 whole entry): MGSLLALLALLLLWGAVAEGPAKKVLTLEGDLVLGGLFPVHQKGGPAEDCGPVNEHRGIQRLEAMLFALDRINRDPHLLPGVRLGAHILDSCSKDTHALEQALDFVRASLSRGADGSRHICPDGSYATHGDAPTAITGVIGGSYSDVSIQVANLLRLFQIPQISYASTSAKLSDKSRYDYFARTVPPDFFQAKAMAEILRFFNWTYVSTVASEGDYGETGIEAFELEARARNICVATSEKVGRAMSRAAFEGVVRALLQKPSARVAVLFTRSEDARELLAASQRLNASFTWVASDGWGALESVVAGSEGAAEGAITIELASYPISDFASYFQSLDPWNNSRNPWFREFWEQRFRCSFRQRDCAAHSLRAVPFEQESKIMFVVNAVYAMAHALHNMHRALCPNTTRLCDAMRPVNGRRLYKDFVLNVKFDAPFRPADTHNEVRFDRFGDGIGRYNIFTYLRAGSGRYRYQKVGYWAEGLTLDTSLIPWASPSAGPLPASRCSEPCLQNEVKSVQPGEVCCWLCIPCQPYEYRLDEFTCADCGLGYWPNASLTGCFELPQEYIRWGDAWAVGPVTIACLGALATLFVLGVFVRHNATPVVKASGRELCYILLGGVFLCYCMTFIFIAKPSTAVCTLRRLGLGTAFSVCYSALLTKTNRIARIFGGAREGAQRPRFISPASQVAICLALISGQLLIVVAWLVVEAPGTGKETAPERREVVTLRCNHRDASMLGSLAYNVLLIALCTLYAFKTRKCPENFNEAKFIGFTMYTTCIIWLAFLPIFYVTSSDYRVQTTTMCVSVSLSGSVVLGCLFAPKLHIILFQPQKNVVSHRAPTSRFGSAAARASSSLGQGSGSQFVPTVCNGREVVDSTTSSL

[20] = tested on: HEK293; assay: Selectivity ratio for human mGluR1 expressed in HEK293 cells to human mGluR2 expressed in CHO cell membranes; format: cell-based
[21] = biological target: T1, Metabotropic glutamate receptor 2; assay: Agonist activity at human mGLuR2 expressed in CHO cell membrane assessed as […] after 30 mins by scintillation counting relative to control; format: functional, cell membranes
Target sequence in this assay (Q14416 19-872 limits assumed): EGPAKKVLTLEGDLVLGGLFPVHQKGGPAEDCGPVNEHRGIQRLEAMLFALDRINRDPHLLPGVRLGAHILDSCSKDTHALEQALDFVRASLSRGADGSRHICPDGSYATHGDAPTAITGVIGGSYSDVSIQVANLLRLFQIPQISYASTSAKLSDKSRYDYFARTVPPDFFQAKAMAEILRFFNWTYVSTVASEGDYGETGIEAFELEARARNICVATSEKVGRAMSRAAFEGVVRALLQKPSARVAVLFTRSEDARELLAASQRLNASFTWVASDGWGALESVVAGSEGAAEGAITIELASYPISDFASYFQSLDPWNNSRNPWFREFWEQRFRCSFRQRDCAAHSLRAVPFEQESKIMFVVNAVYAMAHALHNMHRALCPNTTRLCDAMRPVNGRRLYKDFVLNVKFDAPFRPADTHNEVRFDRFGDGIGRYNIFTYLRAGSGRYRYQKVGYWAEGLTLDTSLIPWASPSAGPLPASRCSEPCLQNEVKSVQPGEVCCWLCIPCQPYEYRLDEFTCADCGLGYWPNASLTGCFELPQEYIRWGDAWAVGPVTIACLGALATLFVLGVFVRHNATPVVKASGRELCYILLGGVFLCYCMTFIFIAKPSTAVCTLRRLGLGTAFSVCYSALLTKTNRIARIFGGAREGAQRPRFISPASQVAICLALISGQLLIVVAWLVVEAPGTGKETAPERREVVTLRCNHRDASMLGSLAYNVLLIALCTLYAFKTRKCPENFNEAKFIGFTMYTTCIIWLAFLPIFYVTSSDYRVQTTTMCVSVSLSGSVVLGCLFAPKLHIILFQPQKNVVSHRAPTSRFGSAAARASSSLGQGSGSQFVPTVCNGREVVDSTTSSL

[22] = tested on: Liver microsomes; assay: Drug metabolism in rat liver microsomes assessed as O-methylated compound derivative; format: ADME, Microsome
[23] = tested on: CHO; assay: Selectivity ratio for human mGluR4 to human mGluR2 expressed in CHO cell membranes; format: cell-based
[24] = tested on: Liver microsomes; assay: Drug metabolism in human liver microsomes assessed as M+O oxidative metabolite; format: ADME, Microsome
[25] = tested on: HEK293; assay: Selectivity ratio for human mGluR8 expressed in HEK293 cells to human mGluR2 expressed in CHO cell membranes; format: cell-based
[26] = tested on: CHO; assay: Selectivity ratio for rat mGluR6 to human mGluR2 expressed in CHO cell membranes; format: cell-based
[27] = Fraction unbound in human plasma; format: ADME, cell-free
[28] = tested on: Liver microsomes; assay: Drug metabolism in human liver microsomes assessed as O-methylated compound derivative; format: ADME, Microsome
[29] = tested on: HEK293; assay: Selectivity ratio for human mGluR7 expressed in HEK293 cells to human mGluR2 expressed in CHO cell membranes; format: cell-based
[30] = Fraction unbound in rat plasma; format: ADME, cell-free
[31] = biological target: T1, Metabotropic glutamate receptor 2; assay: Agonist activity at human mGLuR2 expressed in CHO cell membrane assessed as […] after 30 mins by scintillation counting; format: functional, cell membranes
Target sequence in this assay (Q14416 whole entry): as the sequence (Q14416 whole entry) above

Drug metabolism [18]	IC50 [19] [µM]	Emax [21] [%]	Drug metabolism [22]	Drug metabolism [24]	fraction unbound [27]	Drug metabolism [28]	fraction unbound [30]	SMILES	Selectivity ratio [16]	Selectivity ratio [17]	Selectivity ratio [20]	Selectivity ratio [23]	Selectivity ratio [25]	Selectivity ratio [26]	Selectivity ratio [29]	also measured
								[11CH3]Oc1cc(F)cc(F)c1C1CCN(c2ccn3c(CC4CC4)nnc3c2Cl)CC1								Ratio [1]: 0.88; Ratio [2]: 0.71; Drug uptake [3]: Active; Drug uptake [4]: 0.53 %ID; Ratio [5]: 0.67; Drug uptake [6]: Active; Ratio [7]: 0.66; remaining at 0.5 h [8]: 95.5%; remaining at 0.5 h [9]: 30.8%; Drug uptake [10]: 0.75 %ID; Ratio [11]: 0.77; Drug uptake [12]: Active; Ratio [13]: 0.72; Drug uptake [14]: 0.18 %ID; remaining at 0.5 h [15]: 92.9%
Active	0.0056	256	Active	Active	< 0.01	Active	< 0.01	COc1cc(F)cc(F)c1C1CCN(c2ccn3c(CC4CC4)nnc3c2Cl)CC1	> 350	> 350	> 350	> 350	> 350	> 350	> 350	
								[11CH3]Oc1cccc(F)c1C1CCN(c2ccn3c(CC4CC4)nnc3c2Cl)CC1								Ratio [1]: 0.72; Ratio [2]: 0.63; Drug uptake [3]: Active; Drug uptake [4]: 0.45 %ID; Ratio [5]: 0.59; Drug uptake [6]: Active; Ratio [7]: 0.71; Drug uptake [10]: 0.65 %ID; Ratio [11]: 0.71; Drug uptake [12]: Active; Ratio [13]: 0.6; Drug uptake [14]: 0.17 %ID
Active		336	Active	Active	< 0.01	Active	< 0.01	COc1c(F)cccc1C1CCN(c2ccn3c(CC4CC4)nnc3c2Cl)CC1								
Active	0.0073	258	Active	Active	< 0.01	Active	< 0.01	COc1ccc(F)c(F)c1C1CCN(c2ccn3c(CC4CC4)nnc3c2Cl)CC1	70	> 350	> 350	> 350	> 350	> 350	> 350	
								N#Cc1c(N2CCC(c3ccccc3)CC2)ccn2c(CC(F)(F)F)nnc12								EC50 ([31]; read-out: pEC50 (converted)): 0.0562 µM
Active		342	Active	Active	< 0.01	Active	< 0.01	COc1c(C2CCN(c3ccn4c(CC5CC5)nnc4c3Cl)CC2)ccc(F)c1F								EC50 ([31]; read-out: EC50): 0.026 µM
Active	0.0112	304	Active	Active	< 0.01	Active	< 0.01	COc1cccc(F)c1C1CCN(c2ccn3c(CC4CC4)nnc3c2Cl)CC1	> 350	> 350	> 350	> 350	> 350	> 350	> 350	
